In data set [1] the target is T1, CtpH-LBD (Pseudomonas aeruginosa, UniProt G3XDA3). Nature of the data set: biochemical. The settings on record: for binding: titrated with 5 mM ligand. Format: binding.
The target in a further data set is PstS (Pseudomonas aeruginosa, UniProt G3XDA8). Nature of the data set: biochemical. Format: binding. The settings on record: for ΔH: 25 °C, unfolded/refolded PstS, 10 mM Tris/HCl pH 8.0.
For data set [2], the target named is T1, CtpH-LBD. The settings on record: sedimentation velocity and equilibrium, with and without Pi.
The subject of data set [3] is P. aeruginosa PAO1.
In the next data set the target is CtpL-LBD (Pseudomonas aeruginosa, UniProt Q9HUW6). The settings on record: ITC. As for the experimental part:
E. coli BL21 (DE3) containing the expression plasmids were cultured in LB medium supplemented with 50 μg ml^−1 kanamycin at 30 °C until an OD660 of 0.6, at which point 0.1 mM IPTG was added. […] Pellets were resuspended in buffer A (30 mM Tris, 300 mM NaCl, 10 mM imidazole, 5% (v/v) glycerol, pH 7.0) and broken by French press at 1000 psi. […] Protein was diluted to 10 μM and refolded by two consecutive dialyses into 10 mM Tris/HCl, pH 8.0. Aggregated protein corresponding to misfolded species was removed by filtration using 0.22 μm cut-off filters.
The mean enthalpies from the injection of ligands into buffer were subtracted from titration data prior to analysis with the “One binding site model” of ORIGIN following the algorithm described in[51].
For orientation: In ITC the heat of successive injections is recorded.

The target in data set [4] is T1, CtpH-LBD. The settings on record: CtpH-LBD (51 μM) saturated with 5 mM Pi.
In data set [5] the test system is P. aeruginosa PAO1. The settings on record: cited from earlier work.
Data set [6] deals with G3XDA3. Nature of the data set: AUC; sedimentation equilibrium of CtpH-LBD in the presence of Pi; 11,800, 18,100 and 31,000 rpm, 6 °C, polybuffer.
Data set [7] addresses G3XDA3. Nature of the data set: AUC; sedimentation velocity of CtpH-LBD in the presence of 500 uM Pi; 45,000 rpm, 6 °C, polybuffer.
For data set [8], the target named is T2, PstS (PA5369), periplasmic phosphate-binding protein, recombinant (P. aeruginosa, UniProt G3XDA8 25-323).
T2 construct: also called Pi-loaded PstS; source: E. coli BL21 (DE3), overexpressed, purified (HisTrap)
T2 sequence: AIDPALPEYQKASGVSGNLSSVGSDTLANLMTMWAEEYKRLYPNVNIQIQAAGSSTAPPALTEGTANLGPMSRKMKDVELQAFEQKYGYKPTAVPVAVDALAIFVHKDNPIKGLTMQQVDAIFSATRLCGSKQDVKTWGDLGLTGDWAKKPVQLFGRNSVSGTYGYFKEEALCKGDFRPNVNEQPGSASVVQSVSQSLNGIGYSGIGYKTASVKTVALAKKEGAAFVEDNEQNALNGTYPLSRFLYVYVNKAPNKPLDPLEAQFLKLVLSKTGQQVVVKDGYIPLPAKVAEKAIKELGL
Nature of the data set: AUC; sedimentation velocity, 45,000 rpm, 6 °C, polybuffer; CtpL-LBD and PstS individually and as a mixture; c(s) method. The settings on record: both partners purified.

In data set [9] the target is T2, PstS (PA5369), periplasmic …. Nature of the data set: ITC; 5 uM Pi-loaded PstS in the cell titrated with 80 uM CtpL-LBD; 25 °C; one binding site model; means of three experiments. The settings on record: both partners purified.

Where two headings read alike, the source gives them in different places.

With `O=CC(O)COP(=O)(O)O` (racemic) [DL-glyceraldehyde 3-phosphate], the KD result on CtpH-LBD [1] (pH 7) was “No binding”.
Turning to `O=C(O)[C@H](O)[C@@H](O)[C@H](O)[C@H](O)COP(=O)(O)O` [6-phosphogluconate], the KD result on CtpH-LBD [1] (pH 7) was “No binding”.
As usually defined, the Kd is the equilibrium constant for the complex coming apart. As for `Nc1ncnc2c1ncn2[C@@H]1O[C@H](COP(=O)(O)OP(=O)(O)O)[C@@H](O)[C@H]1O` [ADP], at CtpH-LBD [1], the Kd was 103000 ± 21000 nM. On CtpH-LBD [1] (pH 7), the ΔH was -2.7 ± 1 kcal/mol.
With `Nc1ncnc2c1ncn2[C@@H]1O[C@H](COP(=O)(O)O)[C@@H](O)[C@H]1O` [AMP], on CtpH-LBD [1] (pH 7), the KD entry is “No binding”.
The molecule `Nc1ncnc2c1ncn2[C@@H]1O[C@H](COP(=O)(O)OP(=O)(O)OP(=O)(O)O)[C@@H](O)[C@H]1O` [ATP] showed a Kd on PstS of 300 ± 100 nM. The molecule further yielded a ΔH at PstS (ITC) of -2.9 ± 0.1 kcal/mol. The KD entry at CtpH-LBD [1] (pH 7) is given as “Binding ^1”.
`O=C(CO)[C@@H](O)[C@H](O)[C@H](O)COP(=O)(O)O` [D-fructose 6-phosphate]: the KD result on CtpH-LBD [1] (pH 7) is recorded as “No binding”.
`O=C[C@H](O)[C@@H](O)[C@H](O)[C@H](O)COP(=O)(O)O` [D-glucose 6-phosphate]: the KD result at CtpH-LBD [1] (pH 7) is recorded as “No binding”.
On to `O=P(O)(O)O` [Pi, K2HPO4], for which the “effect on oligomeric state of CtpH-LBD” value on CtpH-LBD [2] is recorded as “causes CtpH-LBD dimerization”. At PstS, this molecule showed a Kd of 7 ± 1 nM. Besides, at PstS (ITC), the ΔH is -5.1 ± 0.1 kcal/mol. The binding result at PstS (ITC, PstS as purified from E. coli, before unfolding/refolding) is listed as “no binding”; on CtpL-LBD (CtpL-LBD denatured, dialyzed and refolded), “did not show any Pi binding”. At PstS (ITC, refolded PstS), the TΔS was determined as 6.0 ± 0.1 kcal/mol. At PstS (ITC, refolded PstS), this molecule yielded a n-value of 0.29 ± 0.02. For the same molecule, the chemotaxis result with P. aeruginosa PAO1 [3] (ctpH mutant, 0.01 mM Pi) is given as “no significant changes”; in the data set with P. aeruginosa PAO1 [3] (ctpH mutant, 0.1 and 10 mM Pi), “compromised chemotaxis”; in the data set on P. aeruginosa PAO1 [3] (pstS deletion mutant, low Pi (0.01 and 0.1 mM)), “dramatically reduced chemotaxis”; in the data set on P. aeruginosa PAO1 [3] (pstS mutant, high Pi (10 mM)), “did not greatly affect chemotaxis”; in the data set with P. aeruginosa PAO1 [3] (pstS/ctpH double mutant), “only very marginal Pi chemotaxis”. Moreover, the KD result on CtpL-LBD (conducted at different temperatures) is “No binding”. Besides, on CtpH-LBD [4] (without Pi 28.2 kcal/mol), the ΔH of unfolding is given as 39.9 + /−1.5 kcal/mol. Further, on CtpH-LBD [4] (without Pi 46.9 °C), the Tm was 56.6 + /−0.2 °C.
Take `O=[As](O)(O)O` [arsenate]: the chemotaxis result in the data set with P. aeruginosa PAO1 [5] (Pi starved cells) was “attracted to arsenate”. Further, the KD entry on CtpH-LBD [1] (ITC, 25 °C, polybuffer pH 7.0) is “No binding”. The binding result on CtpH-LBD [1] (ITC) is given as “did not bind”.
On to `O=[As][O-].[Na+]` [arsenite], for which the KD entry on CtpH-LBD [1] (ITC, 25 °C, polybuffer pH 7.0) is reported as “No binding”. In addition, the binding entry on CtpH-LBD [1] (ITC) is “did not bind”.
As to `C=C(OP(=O)(O)O)C(=O)O` [phosphoenolpyruvate], on CtpH-LBD [1] (pH 7), the KD result is “No binding”.
Take `O=P(O)(O)OP(=O)(O)O` [pyrophosphate]: the chemotaxis entry with P. aeruginosa PAO1 [5] (P. aeruginosa) is “chemotaxis towards millimolar concentrations of pyrophosphate”. The same molecule showed a Kd on PstS of 2600 ± 300 nM. For the same molecule, the ΔH at PstS (ITC) was -8.3 ± 0.3 kcal/mol.

B1: ligand binding domain of the chemoreceptor CtpH (CtpH-LBD) (protein)
chain: GSLTGDVRAYRELLGGPVRAAQLIDEANLQFRGQVQEWKNVLLRGRQTEAQTKYWSQFEAQERAVQDILGRLGSVAEGELKDRVERLREEHRRLGTAYRQGRQRFLEAGADPIAGDQAVTGIDRATTAQMQTLRDELHQASDLHSSSISAEARRT
As to B1, the N with Pi with G3XDA3 [6] is 2. In addition, in the data set with G3XDA3 [7], the “N with Pi” value is “dimer (39,566 Da)”; the “N with Pi (minor species)” value was “tetramer (79,132 Da)”; the “percent of the sedimenting material in the dimer peak, with Pi” value is recorded as 86% of the sedimentation material.

B2: ligand binding domain of the chemoreceptor CtpL (CtpL-LBD) (domain or fragment, P. aeruginosa, UniProt Q9HUW6 27-324, looked up)
chain: WSQRAMERPFQLLDQYLELSQRFDEQVARNIRQYLGSGDAVRQQAALQALESLAEALPELPPDLARTLAPSLAELREFSAGDLLAAGKLAGDPQGLLLQAERDLTGNLEQWSAYLDAAAGQPQAGAYRTPLLLASLHLTRLSLARAKLVESANPALAGDVERELANLREQAGRIEALPLLGVLDEQRSASDDFAAMMGLAGDAEAGAGNAEDRGVALRRELASLLQRYPDELRRTRDLIERRQQLSADTGARLDAVRQALATLEPQVRGERQRLQGQVRLIQGGMIALILLIALAIDS
notes: Cloned into pET28b(+); Held on a HisTrap column as bait in the pull-down; The discussion gives 286 amino acids for CtpL-LBD, whereas 27-324 is 298 residues; also called PA4844; source: E. coli BL21 (DE3), purified (HisTrap) from the soluble fraction
The stoichiometry N is the number of molecules, sites or subunits per partner or assembly. For B2, the “stoichiometry N” value in data set [8] was 1. Further, in data set [9], the dH is -3.1 kcal/mol.

Source of the values: PMC4926252 (Scientific Reports, 2016).
